Measurements from patent US20130183268A1, “DRUG COMBINATIONS WITH FLUORO-SUBSTITUTED OMEGA-CARBOXYARYL DIPHENYL UREA FOR THE TREATMENT AND PREVENTION OF DISEASES AND CONDITIONS” (BAYER HEALTHCARE LLC, priority 2010, published 2013).

Assays:
[1] = molecular target: T1, Flk-1 (murine VEGFR-2) (Mus musculus, UniProt P35918); experiment: Flk-1 (murine VEGFR-2) biochemical assay (TR-FRET); settings: in words
T1 construct: 7 nM Flk-1 (kinase domain)
Procedure: This assay was performed in 96-well opaque plates (Costar 3915) in the TR-FRET format. Reaction conditions are as follows: 10 μM ATP, 25 nM poly GT-biotin, 2 nM Eu-labelled phospho-Tyr Ab, 10 nM APC, 7 nM Flk-1 (kinase domain), 1% DMSO, 50 mM HEPES pH 7.5, 10 mM MgCl2, 0.1 mM EDTA, 0.015% BRIJ, 0.1 mg/mL BSA, 0.1% mercapto-ethanol). Reaction is initiated upon addition of enzyme. Final reaction volume in each well is 100 μL. Plates are read at both 615 and 665 nM on a Perkin Elmer Victor V Multilabel counter at about 1.5-2.0 hours after reaction initiation. Signal is calculated as a ratio: (665 nm/615 nm)*10000 for each well.
For IC50 generation for both PDGFR and Flk-1, compounds were added prior to the enzyme initiation. A 50-fold stock plate was made with compounds serially diluted 1:3 in a 50% DMSO/50% dH2O solution. […] The data were expressed as percent inhibition: % inhibition=100−((Signal with inhibitor-background)/(Signal without inhibitor-background))*100

[2] = Metabolite profile, incubation of [14C]regorafenib with liver microsomes (man); format: in vitro ADME; settings: [14C]regorafenib 20 μM, liver microsomes 0.5 mg/mL, 60 min
Procedure: (§1) N-oxide (M-2), hydroxymethyl (M-3), de-methylated (M-4) and N-oxide-demethylated (M-5) metabolites of the fluoro-substituted diaryl urea of Formula (I) are shown below. They were identified as metabolites of regorafenib in vitro upon incubation with liver enzymes of various mammalian species (man, dog, rat, mouse). Studies reveal that its metabolites show high protein binding in man and animal species (data not shown). [table]

[3] = Pharmacokinetics in patients after 160 mg regorafenib co-precipitate tablet; settings: analyte in plasma, 160 mg regorafenib co-precipitate tablet daily, day 21, n = 9, geometric mean
[4] = system: MDA MB-231 human breast carcinoma cells; experiment: MDA-MB231 proliferation assay; format: cell-based
Procedure: Human breast carcinoma cells (MDA MB-231, NCI) were cultured in standard growth medium (DMEM) supplemented with 10% heat-inactivated FBS at 37° C. in 5% CO2 (vol/vol) in a humidified incubator. Cells were plated at a density of 3000 cells per well in 90 μL growth medium in a 96 well culture dish. In order to determine T0h CTG values, 24 hours after plating, 100 μL of CellTiter-Glo Luminescent Reagent (Promega) was added to each well and incubated at room temperature for 30 minutes. Luminescence was recorded on a Wallac Victor II instrument. […]
Test compounds are dissolved in 100% DMSO to prepare 10 mM stocks. […] The cells with and without individual test compounds were incubated for 72 hours at which time ATP dependent luminescence was measured, as described previously, to yield T72h values. Optionally, the IC50 values can be determined with a least squares analysis program using compound concentration versus percent inhibition.
% Inhibition=[1−(T72h test−T0h)/(T72h ctrl−T0h)]×100, where • T72h test=ATP dependent luminescence at 72 hours in the presence of test compound • T72h ctrl=ATP dependent luminescence at 72 hours in the absence of test compound • T0h=ATP dependent luminescence at Time Zero

[5] = Metabolite profile, incubation of [14C]regorafenib with liver microsomes (rat); format: in vitro ADME, Wistar rat; settings: [14C]regorafenib 20 μM, liver microsomes 0.5 mg/mL, 60 min
Procedure: as §1

[6] = molecular target: T2, p38 α2 (Homo sapiens, UniProt Q16539); experiment: p38 kinase in vitro assay; format: biochemical; settings: in words
T2 construct: His; made in house; host or cells: E. coli
T2 sequence (Q16539 whole entry): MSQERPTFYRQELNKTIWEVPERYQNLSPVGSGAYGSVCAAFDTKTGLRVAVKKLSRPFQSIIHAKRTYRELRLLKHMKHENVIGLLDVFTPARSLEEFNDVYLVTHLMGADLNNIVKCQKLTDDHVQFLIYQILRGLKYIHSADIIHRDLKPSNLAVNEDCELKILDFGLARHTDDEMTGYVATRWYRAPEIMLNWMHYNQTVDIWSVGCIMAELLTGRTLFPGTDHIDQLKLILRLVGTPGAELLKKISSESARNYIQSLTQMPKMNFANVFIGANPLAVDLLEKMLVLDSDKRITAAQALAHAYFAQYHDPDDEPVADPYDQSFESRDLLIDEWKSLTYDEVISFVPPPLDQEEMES
Procedure: Purified and His-tagged p38 α2 (expressed in E. Coli) was activated in vitro by MMK-6 to a high specific activity. Using a microtiter format, all reactions were conducted in 100 μL volumes with reagents diluted to yield 0.05 μg/well of activated p38 α2 and 10 μg/well of myelin basic protein in assay buffer (25 mM HEPES 7.4, 20 mM MgCl2, 150 mM NaCl). Test compounds (5 μL of a 10% DMSO solution in water) were prepared and diluted into the assay to cover a final concentration range from 5 nM to 2.5 μM. The kinase assay was initiated by addition of 25 μL of an ATP cocktail to give a final concentration of 10 μM cold ATP and 0.2 μCi [gamma-^33P] ATP per well (200-400 dpm/pmol of ATP). The plate was incubated at 32° C. for 35 min., and the reaction quenched with 7 μL of a 1 N aq HCl solution. The samples were harvested onto a P30 Filtermat (Wallac, Inc.) using a TomTec 1295 Harvester (Wallac, Inc.), and counted in a LKB 1205 Betaplate Liquid Scintillation Counter (Wallac, Inc.). Negative controls included substrate plus ATP alone. SW1353 cellular assay: SW1353 cells (human chondro-sarcoma) are seeded (1000 cells/100 μL DMEM 10% FCS/well) into 96-well plates and incubated overnight. […] Cultures are incubated for 48 h at 37° C., then supernatant IL-6 values are determined by ELISA.

[7] = Metabolite profile, incubation of [14C]regorafenib with liver microsomes (mouse); format: in vitro ADME, NMRI mouse; settings: [14C]regorafenib 20 μM, liver microsomes 0.5 mg/mL, 60 min
Procedure: as §1

T1 sequence (P35918 832-1160 limits assumed): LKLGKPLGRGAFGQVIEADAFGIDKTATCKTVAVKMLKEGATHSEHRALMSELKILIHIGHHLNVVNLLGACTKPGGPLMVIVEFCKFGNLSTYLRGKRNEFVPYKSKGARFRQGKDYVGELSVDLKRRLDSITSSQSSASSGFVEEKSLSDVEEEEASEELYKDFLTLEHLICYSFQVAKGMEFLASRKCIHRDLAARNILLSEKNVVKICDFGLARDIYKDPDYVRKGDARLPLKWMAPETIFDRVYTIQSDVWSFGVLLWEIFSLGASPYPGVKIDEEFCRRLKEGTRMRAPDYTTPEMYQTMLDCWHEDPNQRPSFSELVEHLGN

CNC(=O)c1cc(Oc2ccc(NC(=O)Nc3ccc(Cl)c(C(F)(F)F)c3)c(F)c2)ccn1 [Example 1, 4{4-[3-(4-chloro-3-trifluoromethylphenyl)-ureido]-3-fluorophenoxy}-pyridine-2-carboxylic acid methylamide]
inhibition of VEGFR2 kinase [1]: significant inhibition | % of radioactivity, Man [2]: 59.1% | AUC Day 21 [3]: 61500 ng·h/mL | Cmax Day 21 [3]: 4170 ng/mL | IC50 ([4]; Homo sapiens, MDA-MB-231 cells, 72 hours): 600 nM | inhibition of proliferation ([4]; in words): significant inhibition | % of radioactivity, Wistar rat [5]: 75.7% | inhibition of p38 kinase [6]: significant inhibition | % of radioactivity, NMRI mouse [7]: 57.8%
